Paper PMC4747952, “Development of TASP0410457 (TASP457), a novel dihydroquinolinone derivative as a PET radioligand for central histamine H3 receptors” (EJNMMI Research, 2016)

How the values were obtained:
Sigma 1 receptor = molecular target: T1, Sigma 1 receptor (Homo sapiens, UniProt Q99720); test: Sigma 1 receptor binding, [3H]pentazocine; settings: Jurkat cell membranes; 4 nM [3H]pentazocine; read-out: Off-target binding Sigma 1, IC50
T1 construct: The membrane preparations were made from Jurkat cell lines; endogenous in cells; host or cells: Jurkat
T1 sequence (Q99720 whole entry): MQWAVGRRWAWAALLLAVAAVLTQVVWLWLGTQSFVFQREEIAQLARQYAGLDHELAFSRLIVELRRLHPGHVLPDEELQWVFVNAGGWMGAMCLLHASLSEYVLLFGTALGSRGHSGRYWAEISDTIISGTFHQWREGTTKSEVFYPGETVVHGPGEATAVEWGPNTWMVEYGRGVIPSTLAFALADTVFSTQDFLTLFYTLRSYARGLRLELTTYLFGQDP
Protocol: (§1) H) 6.86 [d, J = 8.67 Hz, 2 H]; MS [ESI/APCI Dual) [Positive) m/z; 381(M+H)+ ) .
(§2) Off-target binding of compounds
(§3) The membrane preparations were made from Jurkat cell lines, and were incubated in sigma 1 binding buffer (0.1% bovine serum albumin in 50 mM Tris, pH7.4) containing 4 nM [3H]pentazocine (PerkinElmer), and serial concentrations of the compound at 25°C for 2.5 h. The reaction was terminated by rapid filtration through a 96-well GF/C filter plate presoaked in 0.5% polyethyleneimine.
(§4) The filters were washed with ice-cold 50 mM Tris (pH7.4) three times, dried, and filled with Microscint-o. The radioactivity retained on the filter was counted using a TopCount NXT. Nonspecific binding was determined as the amount of radioactivity under the above-mentioned conditions in the presence of […] of haloperidol. The IC50 values were determined by nonlinear curve-fitting of the concentration-response data for each compound using Origin version 6.1087 (OriginLab Corporation, […]
(§5) Adrenergic 2c receptor binding
Human 2c receptor-expressing membrane preparations were purchased from PerkinElmer. The

Adrenergic α2c receptor = molecular target: T2, Adrenergic α2c receptor (Homo sapiens, UniProt P18825); test: Adrenergic α2c receptor binding, [3H]MK-912; settings: 0.08 nM [3H]MK-912; read-out: Off-target binding Adrenergic α2c, IC50
T2 construct: purchased PerkinElmer
T2 sequence (P18825 1-462): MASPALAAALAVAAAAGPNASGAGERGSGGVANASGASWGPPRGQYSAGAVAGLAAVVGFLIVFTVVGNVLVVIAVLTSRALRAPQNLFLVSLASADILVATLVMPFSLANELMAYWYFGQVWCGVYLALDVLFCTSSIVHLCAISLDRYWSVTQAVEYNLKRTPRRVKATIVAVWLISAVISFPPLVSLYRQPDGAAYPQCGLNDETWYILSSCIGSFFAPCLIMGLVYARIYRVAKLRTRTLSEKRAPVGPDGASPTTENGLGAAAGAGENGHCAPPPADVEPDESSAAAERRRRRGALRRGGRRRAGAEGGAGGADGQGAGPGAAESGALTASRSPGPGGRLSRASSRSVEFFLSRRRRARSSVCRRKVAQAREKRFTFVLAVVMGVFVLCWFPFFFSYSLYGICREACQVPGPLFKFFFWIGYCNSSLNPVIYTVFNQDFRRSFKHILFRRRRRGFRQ
Protocol: as §1, §2, §3, §4, §5
Human 2c receptor-expressing membrane preparations were purchased from PerkinElmer. The membranes were incubated in binding buffer (1 mM EDTA and 0.1% bovine serum albumin in 50 mM Tris, pH7.4) containing 0.08 nM [3H]MK-912 (PerkinElmer), and serial concentrations of the compound at 25°C for 1 h. The reaction was terminated by rapid filtration through a 96-well GF/C filter plate presoaked in 0.5% polyethyleneimine. […] The radioactivity retained on the filter was counted using a TopCount NXT. Nonspecific binding was determined as the amount of radioactivity under the conditions mentioned above in the presence of […] of rauwolscine. The IC50 values were determined as for sigma 1 receptor binding. […]
The reaction was terminated by rapid filtration through a 96-well GF/C filter plate presoaked in 0.5% polyethyleneimine. […] The radioactivity retained on the filter was counted using a TopCount NXT. Nonspecific binding was determined as the amount of radioactivity under the above-mentioned conditions in the presence of 1 µM of atropine.

Benzodiazepine (central) = test: Off-target binding (Cerep); design: unit of the concentration uncertain
Excerpt: (§6) Off-target binding of compounds assessed using an in-house assay (M4) and a commercial battery (all
(§7) others) (Cerep, Celle L'Evescault, France).
(§8) Concentration % Inhibition Concentration % Inhibition Concentration % Inhibition […]

[1] = system: Ca2+ channel (L, dihydropyridine site); test: Off-target binding (Cerep); design: unit of the concentration uncertain
Excerpt: as §6, §7, §8

Glutamate Kainate = test: Off-target binding (Cerep); design: unit of the concentration uncertain
Excerpt: as §6, §7

Imidazoline I2 = test: Off-target binding (Cerep); design: unit of the concentration uncertain
Excerpt: as §6, §7

Opioid kappa (KOP) = test: Off-target binding (Cerep); design: unit of the concentration uncertain
Excerpt: as §6, §7

Serotonin 5-HT1B = test: Off-target binding (Cerep); design: unit of the concentration uncertain
Excerpt: as §6, §7

Serotonin 5-HT1D = test: Off-target binding (Cerep); design: unit of the concentration uncertain
Excerpt: as §6, §7

[2] = Concentration 10 (unit uncertain)
[3] = Concentration 1 (unit uncertain)

Row | IC50 (Sigma 1 receptor) [nM] | IC50 (Adrenergic α2c receptor) [nM] | % Inhibition (Benzodiazepine (central); [2]) [%] | % Inhibition [1, 2] [%] | % Inhibition (Glutamate Kainate; [2]) [%] | % Inhibition (Imidazoline I2; [2]) [%] | % Inhibition (Opioid kappa (KOP); [2]) [%] | % Inhibition (Serotonin 5-HT1B; [2]) [%] | % Inhibition (Serotonin 5-HT1D; [2]) [%] | % Inhibition (Benzodiazepine (central); [3]) [%] | % Inhibition [1, 3] [%] | % Inhibition (Glutamate Kainate; [3]) [%] | % Inhibition (Imidazoline I2; [3]) [%] | % Inhibition (Opioid kappa (KOP); [3]) [%] | % Inhibition (Serotonin 5-HT1B; [3]) [%] | % Inhibition (Serotonin 5-HT1D; [3]) [%] | SMILES
1 | 167 | > 1000 | -19 | 20 | -11 | 23 | 11 | -25 | 5 |  |  |  |  |  |  |  | COc1ccc(N2C(=O)CCc3cc(OCCCN4CCC[C@H]4C)ccc32)cc1 [TASP0390136, 1-(4-methoxyphenyl)-6-{3-[(2R)-2-methylpyrrolidin-1-yl]propoxy}-3,4-dihydroquinolin-2(1H)-one]
2 | 379 | > 1000 | -4 | -23 | -12 | 1 | -6 | 25 | 17 |  |  |  |  |  |  |  | COc1ccc(N2C(=O)CCc3cc(OC4CCN(C5CCC5)CC4)ccc32)cn1 [TASP0410457, 6-[(1-Cyclobutylpiperidin-4-yl)oxy]-1-(6-methoxypyridin-3-yl)-3,4-dihydroquinolin-2(1H)-one]
3 | 257 | 528 |  |  |  |  |  |  |  | -2 | -27 | 4 | 16 | -12 | 3 | -12 | COc1ccc(N2C(=O)CCc3cc(OC4CCN(C5CCC5)CC4)ccc32)cc1 [TASP0434988, 6-[(1-cyclobutylpiperidin-4-yl)oxy]-1-(4-methoxyphenyl)-3,4-dihydroquinolin-2(1H)-one]
